Measurements published in ChEMBL document CHEMBL1201862, “PubChem BioAssay data set” (2004).
Calls of active or inactive are those of the source.

Legend:
[1] = target: Peroxisome proliferator-activated receptor gamma/Nuclear receptor coactivator 1 (Homo sapiens, UniProt P37231); assay: (§1) TR-FRET dose response biochemical High Throughput Screening assay for agonists of the steroid receptor coactivator 1 (SRC-1) recruitment by the peroxisome proliferator-activated receptor gamma (PPAR gamma): non-selective agonists. [Related pubchem assays (depositor defined):AID1300, AID1808, AID504735, AID631]; assay type: protein assay
[2] = target: Peroxisome proliferator-activated receptor gamma/Nuclear receptor coactivator 3 (Homo sapiens, UniProt P37231); assay: as §1, with “3 (SRC-3)” for “1 (SRC-1)”, “assays: 1301 (Confirmation screen.), 1048 (Primary screen.)]” for “assays (depositor defined):AID1300, AID1808, AID504735, AID631]”; assay type: functional
Chain of Peroxisome proliferator-activated receptor gamma/Nuclear receptor coactivator 3 (P37231 whole entry): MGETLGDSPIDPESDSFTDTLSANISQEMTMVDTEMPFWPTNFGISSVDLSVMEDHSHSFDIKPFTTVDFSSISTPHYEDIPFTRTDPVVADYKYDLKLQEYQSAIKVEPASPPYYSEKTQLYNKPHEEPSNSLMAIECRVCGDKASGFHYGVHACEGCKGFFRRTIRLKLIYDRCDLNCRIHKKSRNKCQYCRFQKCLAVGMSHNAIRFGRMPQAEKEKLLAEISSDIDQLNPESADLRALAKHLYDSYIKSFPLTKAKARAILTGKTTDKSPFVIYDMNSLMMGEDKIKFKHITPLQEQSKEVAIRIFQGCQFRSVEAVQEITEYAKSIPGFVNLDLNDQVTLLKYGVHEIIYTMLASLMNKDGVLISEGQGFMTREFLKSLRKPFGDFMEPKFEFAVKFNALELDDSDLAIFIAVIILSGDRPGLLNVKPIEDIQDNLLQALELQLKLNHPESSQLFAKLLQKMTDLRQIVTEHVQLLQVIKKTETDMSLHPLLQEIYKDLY
Chain of Peroxisome proliferator-activated receptor gamma/Nuclear receptor coactivator 3 (Q9Y6Q9 whole entry, further chain): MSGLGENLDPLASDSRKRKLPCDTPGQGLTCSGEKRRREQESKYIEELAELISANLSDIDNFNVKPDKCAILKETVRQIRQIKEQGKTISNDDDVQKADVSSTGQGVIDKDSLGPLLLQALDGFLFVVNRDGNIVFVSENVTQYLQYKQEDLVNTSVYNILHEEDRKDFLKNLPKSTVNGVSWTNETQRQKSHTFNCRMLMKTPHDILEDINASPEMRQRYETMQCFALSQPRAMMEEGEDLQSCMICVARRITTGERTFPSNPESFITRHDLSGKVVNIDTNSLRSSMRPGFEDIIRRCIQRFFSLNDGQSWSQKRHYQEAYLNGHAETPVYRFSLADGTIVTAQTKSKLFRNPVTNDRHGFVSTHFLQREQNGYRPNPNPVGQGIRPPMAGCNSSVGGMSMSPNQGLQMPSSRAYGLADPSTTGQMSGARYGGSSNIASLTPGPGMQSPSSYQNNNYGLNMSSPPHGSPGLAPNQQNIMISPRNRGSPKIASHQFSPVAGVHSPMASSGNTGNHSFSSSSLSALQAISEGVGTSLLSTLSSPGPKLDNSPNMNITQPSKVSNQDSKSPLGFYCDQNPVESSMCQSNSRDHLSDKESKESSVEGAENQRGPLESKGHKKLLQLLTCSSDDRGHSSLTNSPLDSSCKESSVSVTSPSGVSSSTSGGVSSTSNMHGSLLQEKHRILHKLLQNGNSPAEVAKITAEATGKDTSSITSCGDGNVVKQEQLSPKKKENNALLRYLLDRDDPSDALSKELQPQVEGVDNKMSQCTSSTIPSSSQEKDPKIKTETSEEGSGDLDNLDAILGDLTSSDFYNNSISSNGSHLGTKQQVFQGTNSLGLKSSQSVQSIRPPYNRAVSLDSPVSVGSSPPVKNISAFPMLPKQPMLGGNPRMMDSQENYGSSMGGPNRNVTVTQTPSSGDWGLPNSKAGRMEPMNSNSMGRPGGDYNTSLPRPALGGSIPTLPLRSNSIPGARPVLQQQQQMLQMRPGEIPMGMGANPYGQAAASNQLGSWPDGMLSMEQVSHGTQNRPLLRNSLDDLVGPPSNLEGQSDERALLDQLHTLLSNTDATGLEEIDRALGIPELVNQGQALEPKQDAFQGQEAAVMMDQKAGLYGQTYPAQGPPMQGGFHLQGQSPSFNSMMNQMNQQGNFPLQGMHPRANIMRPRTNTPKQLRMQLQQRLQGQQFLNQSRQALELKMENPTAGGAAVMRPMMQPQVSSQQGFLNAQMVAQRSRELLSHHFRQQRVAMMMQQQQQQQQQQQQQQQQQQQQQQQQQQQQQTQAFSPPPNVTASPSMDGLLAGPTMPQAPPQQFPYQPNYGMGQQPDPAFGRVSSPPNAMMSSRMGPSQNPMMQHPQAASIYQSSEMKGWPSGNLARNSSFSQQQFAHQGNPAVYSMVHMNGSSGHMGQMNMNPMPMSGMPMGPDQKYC

[3] = target: Peroxisome proliferator-activated receptor gamma/Nuclear receptor coactivator 2 (Homo sapiens, UniProt P37231); assay: TR-FRET dose response biochemical High Throughput Screening assay for agonists of the steroid receptor coactivator 2 (SRC-2) recruitment by the peroxisome proliferator-activated receptor gamma (PPAR gamma): non-selective agonists. [Related pubchem assays: 1297, 1032 ]; assay type: functional
Chain of Peroxisome proliferator-activated receptor gamma/Nuclear receptor coactivator 2 (P37231 whole entry): as the sequence (P37231 whole entry) above
Chain of Peroxisome proliferator-activated receptor gamma/Nuclear receptor coactivator 2 (Q15596 whole entry, further chain): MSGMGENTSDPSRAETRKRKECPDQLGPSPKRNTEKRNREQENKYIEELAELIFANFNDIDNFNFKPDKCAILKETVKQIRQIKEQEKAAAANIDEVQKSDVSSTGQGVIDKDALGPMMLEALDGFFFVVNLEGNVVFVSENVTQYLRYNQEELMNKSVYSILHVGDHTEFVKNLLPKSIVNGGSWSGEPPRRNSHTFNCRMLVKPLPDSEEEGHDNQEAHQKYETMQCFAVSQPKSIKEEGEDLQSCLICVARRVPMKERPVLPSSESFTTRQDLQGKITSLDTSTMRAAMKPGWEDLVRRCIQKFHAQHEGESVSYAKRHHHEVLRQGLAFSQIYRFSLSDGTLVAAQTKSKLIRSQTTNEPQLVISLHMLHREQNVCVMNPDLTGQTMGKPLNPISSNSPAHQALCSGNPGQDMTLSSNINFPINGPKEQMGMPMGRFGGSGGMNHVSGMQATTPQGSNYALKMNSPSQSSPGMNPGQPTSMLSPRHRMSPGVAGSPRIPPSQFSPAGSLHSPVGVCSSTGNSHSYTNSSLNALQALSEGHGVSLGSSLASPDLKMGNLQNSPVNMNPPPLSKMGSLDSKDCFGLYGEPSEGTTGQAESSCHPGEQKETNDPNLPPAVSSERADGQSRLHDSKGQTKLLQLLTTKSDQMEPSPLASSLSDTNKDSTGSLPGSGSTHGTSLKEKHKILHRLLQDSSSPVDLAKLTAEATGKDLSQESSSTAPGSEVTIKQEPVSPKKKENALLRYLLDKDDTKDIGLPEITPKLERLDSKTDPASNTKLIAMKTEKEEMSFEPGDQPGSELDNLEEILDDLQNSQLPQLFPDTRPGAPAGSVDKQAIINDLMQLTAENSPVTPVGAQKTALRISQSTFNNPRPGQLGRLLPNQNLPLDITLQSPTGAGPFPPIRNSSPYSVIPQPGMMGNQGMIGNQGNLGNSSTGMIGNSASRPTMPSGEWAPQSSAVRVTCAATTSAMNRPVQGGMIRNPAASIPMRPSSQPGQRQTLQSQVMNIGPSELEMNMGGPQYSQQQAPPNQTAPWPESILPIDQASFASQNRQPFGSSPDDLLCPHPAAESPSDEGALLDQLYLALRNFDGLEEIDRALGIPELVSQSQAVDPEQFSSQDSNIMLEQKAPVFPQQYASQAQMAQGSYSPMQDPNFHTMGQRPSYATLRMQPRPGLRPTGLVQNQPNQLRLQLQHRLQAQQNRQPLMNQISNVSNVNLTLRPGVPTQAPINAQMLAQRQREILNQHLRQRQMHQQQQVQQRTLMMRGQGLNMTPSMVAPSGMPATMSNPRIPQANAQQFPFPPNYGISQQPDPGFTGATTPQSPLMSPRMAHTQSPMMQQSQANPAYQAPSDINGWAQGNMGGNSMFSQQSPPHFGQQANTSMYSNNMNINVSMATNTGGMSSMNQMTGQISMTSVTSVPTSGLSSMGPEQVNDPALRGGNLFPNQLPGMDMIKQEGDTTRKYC

[4] = target: G-protein coupled receptor 55 (Homo sapiens, UniProt Q9Y2T6); assay: GPR55 antagonists blocking LPI-driven arrestin recruitment, primary screen, imaging, U2OS, beta-arrestin-GFP, LPI agonist (AID 2013); assay type: functional;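 note: antagonist potency measured as reduced agonist-driven arrestin aggregation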
Chain of G-protein coupled receptor 55 (Q9Y2T6 whole entry): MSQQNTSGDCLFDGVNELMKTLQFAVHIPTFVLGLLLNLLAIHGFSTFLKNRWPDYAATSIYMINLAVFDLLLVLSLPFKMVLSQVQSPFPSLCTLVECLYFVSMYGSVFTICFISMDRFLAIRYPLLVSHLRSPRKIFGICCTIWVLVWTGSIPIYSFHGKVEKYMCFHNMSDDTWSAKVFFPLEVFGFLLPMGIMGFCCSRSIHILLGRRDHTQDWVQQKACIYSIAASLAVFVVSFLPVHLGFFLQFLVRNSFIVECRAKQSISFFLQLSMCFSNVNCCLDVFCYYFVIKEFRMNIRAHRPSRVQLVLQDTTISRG

[5] = inhibitors of intracellular T. cruzi replication, confirmation, NIH3T3 host cells, beta-gal luminescence (AID 2044); assay type: functional, cell-based;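 note: intracellular parasites grown in NIH/3T3 mouse fibroblasts as host cells; luminescent beta-galactosidase reporter signal from transgenic T. cruzi replicating inside host cells; inhibitors lower the luminescence signal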
[6] = cytotoxicity toward NIH3T3 fibroblasts, dose response, counter-screen, cell-based, ATP luminescence, mouse fibroblasts (AID 2010); assay type: functional;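 note: cells exposed to compound for about 90 hours before reading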
H9c2 = assay: cells; assay type: functional, cell-based; conditions: Rattus norvegicus, H9c2, Myocardium;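 note: confirmatory concentration-response retest of ultra-high-throughput screening hits for modulation of myocardial damage; cell death induced by hydrogen peroxide oxidative stress; compound pretreatment for 60 min then peroxide exposure for 2 h; potency is for protecting the cells against peroxide damage rather than for killing them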
Fatty acid synthase = Fatty acid synthase (Homo sapiens, UniProt P49327); assay: FAS thioesterase domain inhibitors, dose response, biochemical, kinetic fluorescence intensity (AID 624326); assay type: functional;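 note: rate of fluorescence rise from hydrolysis of a fluorogenic O-methyl fluorescein ester substrate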
Hexokinase HKDC1 = target: T1, Hexokinase HKDC1 (Homo sapiens, UniProt Q2TB90); assay: HKDC1 hexokinase activators, dose response, biochemical, W721R variant (AID 504730); assay type: functional
T1 sequence (Q2TB90 whole entry): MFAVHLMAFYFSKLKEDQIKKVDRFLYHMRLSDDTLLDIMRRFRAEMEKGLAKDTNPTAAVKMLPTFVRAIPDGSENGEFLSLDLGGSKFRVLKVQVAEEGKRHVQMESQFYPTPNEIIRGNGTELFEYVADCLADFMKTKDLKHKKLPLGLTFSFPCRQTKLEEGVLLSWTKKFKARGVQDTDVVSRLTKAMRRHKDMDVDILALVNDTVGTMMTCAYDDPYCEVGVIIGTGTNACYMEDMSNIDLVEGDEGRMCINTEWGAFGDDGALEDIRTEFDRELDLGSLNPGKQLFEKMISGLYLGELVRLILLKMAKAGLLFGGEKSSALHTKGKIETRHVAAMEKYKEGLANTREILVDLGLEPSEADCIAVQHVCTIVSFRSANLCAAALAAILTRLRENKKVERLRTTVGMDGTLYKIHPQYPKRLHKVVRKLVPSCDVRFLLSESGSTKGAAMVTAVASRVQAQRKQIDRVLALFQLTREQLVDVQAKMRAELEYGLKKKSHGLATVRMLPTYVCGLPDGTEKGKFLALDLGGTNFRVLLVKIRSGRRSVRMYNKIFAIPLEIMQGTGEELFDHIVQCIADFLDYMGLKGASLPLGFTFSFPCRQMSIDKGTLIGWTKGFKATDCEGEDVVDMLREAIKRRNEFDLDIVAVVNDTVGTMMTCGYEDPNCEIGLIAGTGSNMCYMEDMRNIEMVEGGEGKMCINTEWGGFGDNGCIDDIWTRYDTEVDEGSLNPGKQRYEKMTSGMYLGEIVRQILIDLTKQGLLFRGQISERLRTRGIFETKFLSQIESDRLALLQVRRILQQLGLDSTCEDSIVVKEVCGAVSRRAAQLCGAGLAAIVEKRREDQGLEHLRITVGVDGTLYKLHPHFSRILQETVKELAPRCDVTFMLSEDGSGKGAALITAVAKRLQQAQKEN

Nonstructural protein 1 = Nonstructural protein 1 (Influenza A virus, UniProt Q194T2); assay type: functional, Influenza A virus (A/California/07/2009(H1N1))
Chain of Nonstructural protein 1 (Q194T2 whole entry): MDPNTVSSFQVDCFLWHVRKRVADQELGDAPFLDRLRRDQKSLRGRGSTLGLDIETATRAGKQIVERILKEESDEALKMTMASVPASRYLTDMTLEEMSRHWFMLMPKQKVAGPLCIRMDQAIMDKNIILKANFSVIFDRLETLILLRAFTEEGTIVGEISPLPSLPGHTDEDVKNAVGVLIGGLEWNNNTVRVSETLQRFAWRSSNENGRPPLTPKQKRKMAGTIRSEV

Hexokinase-1 = target: T2, Hexokinase-1 (Homo sapiens, UniProt P19367); assay: hexokinase 1 activators, dose response, selectivity assay for HKDC1 activator project, biochemical (AID 504762); assay type: functional
T2 sequence (P19367 whole entry): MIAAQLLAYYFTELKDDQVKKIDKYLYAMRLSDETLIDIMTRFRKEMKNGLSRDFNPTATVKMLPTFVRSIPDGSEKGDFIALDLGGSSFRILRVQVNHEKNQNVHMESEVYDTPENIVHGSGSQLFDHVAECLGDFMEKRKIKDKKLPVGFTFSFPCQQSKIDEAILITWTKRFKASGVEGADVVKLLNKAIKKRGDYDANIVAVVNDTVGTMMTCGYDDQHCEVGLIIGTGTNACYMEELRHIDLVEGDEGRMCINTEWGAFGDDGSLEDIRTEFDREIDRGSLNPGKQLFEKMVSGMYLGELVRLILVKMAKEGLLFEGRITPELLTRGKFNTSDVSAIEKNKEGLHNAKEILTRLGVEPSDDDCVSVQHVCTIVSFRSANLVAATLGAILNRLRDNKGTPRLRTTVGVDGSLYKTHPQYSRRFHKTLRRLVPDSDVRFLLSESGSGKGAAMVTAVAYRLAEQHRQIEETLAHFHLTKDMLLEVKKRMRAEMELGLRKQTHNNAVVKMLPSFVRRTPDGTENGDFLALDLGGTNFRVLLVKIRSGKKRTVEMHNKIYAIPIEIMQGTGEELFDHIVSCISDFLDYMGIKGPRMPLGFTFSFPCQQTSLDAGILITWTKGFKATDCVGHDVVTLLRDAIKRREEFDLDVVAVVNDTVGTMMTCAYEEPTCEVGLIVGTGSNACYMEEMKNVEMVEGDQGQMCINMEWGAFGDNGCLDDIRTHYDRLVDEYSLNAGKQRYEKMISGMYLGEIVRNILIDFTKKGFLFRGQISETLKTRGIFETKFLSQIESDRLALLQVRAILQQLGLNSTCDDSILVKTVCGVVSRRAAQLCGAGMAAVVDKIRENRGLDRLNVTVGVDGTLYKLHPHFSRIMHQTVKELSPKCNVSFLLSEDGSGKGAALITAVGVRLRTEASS

Bcl-2-related protein A1 = target: T3, Bcl-2-related protein A1 (Mus musculus, UniProt Q07440); assay type: functional;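 note: confirmatory dose–response counterscreen on Bfl-1, used to check hits from a UBC13 polyubiquitin inhibitor campaign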
T3 sequence (Q07440 whole entry): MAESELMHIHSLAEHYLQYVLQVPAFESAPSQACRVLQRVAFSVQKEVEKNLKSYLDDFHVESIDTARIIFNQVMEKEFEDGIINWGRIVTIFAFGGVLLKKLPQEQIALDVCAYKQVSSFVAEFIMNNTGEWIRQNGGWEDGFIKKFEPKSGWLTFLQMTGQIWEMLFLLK

[7] = target: T4, Ubiquitin-conjugating enzyme E2 N (Homo sapiens, UniProt P61088); assay type: functional
T4 sequence (P61088 whole entry): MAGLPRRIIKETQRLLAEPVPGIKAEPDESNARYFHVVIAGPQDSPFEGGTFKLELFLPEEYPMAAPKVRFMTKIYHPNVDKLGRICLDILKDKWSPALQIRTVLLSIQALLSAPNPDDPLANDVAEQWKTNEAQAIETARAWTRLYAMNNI

[8] = target: T4, Ubiquitin-conjugating enzyme E2 N; assay type: functional; remark: listed apart in the source

Compound: CCOC(=O)C1CCN(C(=O)CSc2c3c(nc4ccccc24)CCC3)CC1
- EC50 [1]: > 79.4 µM (inactive)
- EC50 [2]: > 79.4 µM (not active)
- EC50 [3]: > 79.4 µM (not active)

Compound: O=C(NC12CC3CC(CC(C3)C1)C2)c1ccc(-c2ccc(Cl)cc2)o1
- IC50 [4]: 0.598 µM (active)
- EC50 [5]: 2.11 µM (active)
- EC50 [6]: > 60 µM (not active)

Compound: O=C(Nc1nc(-c2ccc(S(=O)(=O)N3CCCC3)cc2)cs1)C1COc2ccccc2O1 (stereo unspecified)
- EC50 [1]: 31 µM (inactive)
- EC50 [2]: > 79.4 µM (not active)
- EC50 [3]: 27.7 µM (not active)
- IC50 (H9c2): > 79 µM (inactive)
- IC50 (Fatty acid synthase): 1.28 µM (active)

Compound: Nc1ccc(N2CCCCC2)c(S(=O)(=O)Nc2ccccc2Cl)c1
- IC50 [4]: 3.53 µM (active)

Compound: S=C(NCc1ccccn1)NN=Cc1ccccn1
- EC50 (Hexokinase HKDC1): 27.8 µM (inactive)
- IC50 (Nonstructural protein 1): 3.89 µM (active)
- EC50 (Hexokinase-1): > 80 µM (inactive)

Compound: CCOC(=O)N1CCC(NC(=O)CSc2cc(=O)n(CC)c3ccccc23)CC1
- EC50 [1]: > 79.4 µM (inactive)
- EC50 [2]: > 79.4 µM (not active)
- EC50 [3]: > 79.4 µM (not active)

Compound: O=C(NNC(=O)c1nn(-c2ccc(F)cc2)ccc1=O)c1ccccc1Cl
- IC50 (Bcl-2-related protein A1): > 20 µM (inactive)
- IC50 [7]: 9.9 µM (active)
- IC50 [8]: 4.29 µM (active)
